# Source: ChEMBL document CHEMBL1201862, “PubChem BioAssay data set” (2004)
# The source made the active and inactive calls.
# How the values were obtained:
# [1] = viability of uninfected HEp-2 cells – cell-based, HTS, cytotoxicity control for RSV inhibitor project, dose response (AID 2410); type: functional; details: human respiratory syncytial virus
# Prothrombin = Prothrombin (Homo sapiens, UniProt P00734); assay: Thrombin 1536 HTS Dose Response Confirmation. [Related pubchem assays: 1046 (Thrombin 1536 HTS; hits were confirmed in this assay)]; type: functional
# [2] = molecular target: T1, Rac GTPase-activating protein 1 (Homo sapiens, UniProt Q9H0H5); assay: blockers of MgcRacGAP-driven Rac1 GTP hydrolysis – biochemical, ADP Hunter fluorescence, primary and confirmatory, confirmation (AID 624330); type: functional
# T1 sequence (Q9H0H5 whole entry): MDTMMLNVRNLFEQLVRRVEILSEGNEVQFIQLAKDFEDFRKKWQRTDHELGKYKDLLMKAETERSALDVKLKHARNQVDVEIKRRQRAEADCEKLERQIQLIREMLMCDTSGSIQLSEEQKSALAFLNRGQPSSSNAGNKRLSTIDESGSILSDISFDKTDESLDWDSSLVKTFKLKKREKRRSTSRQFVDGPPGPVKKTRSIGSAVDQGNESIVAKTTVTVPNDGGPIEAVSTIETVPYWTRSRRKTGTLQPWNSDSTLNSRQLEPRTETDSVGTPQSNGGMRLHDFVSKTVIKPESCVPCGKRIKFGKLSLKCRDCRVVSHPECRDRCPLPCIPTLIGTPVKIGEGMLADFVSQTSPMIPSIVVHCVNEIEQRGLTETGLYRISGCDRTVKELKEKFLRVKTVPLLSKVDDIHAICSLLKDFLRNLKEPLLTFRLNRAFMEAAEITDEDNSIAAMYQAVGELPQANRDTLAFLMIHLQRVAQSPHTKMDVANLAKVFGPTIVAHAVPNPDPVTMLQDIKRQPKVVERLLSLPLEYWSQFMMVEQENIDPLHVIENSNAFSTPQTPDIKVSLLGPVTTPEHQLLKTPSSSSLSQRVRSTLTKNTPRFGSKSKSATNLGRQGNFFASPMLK
# [3] = molecular target: FAD-linked sulfhydryl oxidase ALR (Homo sapiens, UniProt P55789); assay: ALR-catalysed DTT oxidation blockers – biochemical, H2O2 detection, luminescence, cherry-pick, dose response (AID 493248)
# Chain of FAD-linked sulfhydryl oxidase ALR (P55789 whole entry): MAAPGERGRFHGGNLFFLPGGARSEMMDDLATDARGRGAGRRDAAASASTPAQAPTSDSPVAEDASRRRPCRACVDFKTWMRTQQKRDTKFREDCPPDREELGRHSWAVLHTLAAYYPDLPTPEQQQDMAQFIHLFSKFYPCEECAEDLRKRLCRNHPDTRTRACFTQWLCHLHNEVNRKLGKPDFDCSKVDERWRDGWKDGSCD
# [4] = viability loss in HeLa cells – cytotoxicity control for MgcRacGAP inhibitor project, dose response (AID 624300); type: functional
# Fatty acid synthase [5] = molecular target: T2, Fatty acid synthase (Homo sapiens, UniProt P49327); assay: inhibition of human FAS-TE enzyme activity – biochemical, kinetic fluorescence intensity, dose response (AID 624326); type: functional;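 further: rate of fluorescence rise from hydrolysis of a fluorogenic O-methyl fluorescein ester substrate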
# T2 sequence (P49327 whole entry): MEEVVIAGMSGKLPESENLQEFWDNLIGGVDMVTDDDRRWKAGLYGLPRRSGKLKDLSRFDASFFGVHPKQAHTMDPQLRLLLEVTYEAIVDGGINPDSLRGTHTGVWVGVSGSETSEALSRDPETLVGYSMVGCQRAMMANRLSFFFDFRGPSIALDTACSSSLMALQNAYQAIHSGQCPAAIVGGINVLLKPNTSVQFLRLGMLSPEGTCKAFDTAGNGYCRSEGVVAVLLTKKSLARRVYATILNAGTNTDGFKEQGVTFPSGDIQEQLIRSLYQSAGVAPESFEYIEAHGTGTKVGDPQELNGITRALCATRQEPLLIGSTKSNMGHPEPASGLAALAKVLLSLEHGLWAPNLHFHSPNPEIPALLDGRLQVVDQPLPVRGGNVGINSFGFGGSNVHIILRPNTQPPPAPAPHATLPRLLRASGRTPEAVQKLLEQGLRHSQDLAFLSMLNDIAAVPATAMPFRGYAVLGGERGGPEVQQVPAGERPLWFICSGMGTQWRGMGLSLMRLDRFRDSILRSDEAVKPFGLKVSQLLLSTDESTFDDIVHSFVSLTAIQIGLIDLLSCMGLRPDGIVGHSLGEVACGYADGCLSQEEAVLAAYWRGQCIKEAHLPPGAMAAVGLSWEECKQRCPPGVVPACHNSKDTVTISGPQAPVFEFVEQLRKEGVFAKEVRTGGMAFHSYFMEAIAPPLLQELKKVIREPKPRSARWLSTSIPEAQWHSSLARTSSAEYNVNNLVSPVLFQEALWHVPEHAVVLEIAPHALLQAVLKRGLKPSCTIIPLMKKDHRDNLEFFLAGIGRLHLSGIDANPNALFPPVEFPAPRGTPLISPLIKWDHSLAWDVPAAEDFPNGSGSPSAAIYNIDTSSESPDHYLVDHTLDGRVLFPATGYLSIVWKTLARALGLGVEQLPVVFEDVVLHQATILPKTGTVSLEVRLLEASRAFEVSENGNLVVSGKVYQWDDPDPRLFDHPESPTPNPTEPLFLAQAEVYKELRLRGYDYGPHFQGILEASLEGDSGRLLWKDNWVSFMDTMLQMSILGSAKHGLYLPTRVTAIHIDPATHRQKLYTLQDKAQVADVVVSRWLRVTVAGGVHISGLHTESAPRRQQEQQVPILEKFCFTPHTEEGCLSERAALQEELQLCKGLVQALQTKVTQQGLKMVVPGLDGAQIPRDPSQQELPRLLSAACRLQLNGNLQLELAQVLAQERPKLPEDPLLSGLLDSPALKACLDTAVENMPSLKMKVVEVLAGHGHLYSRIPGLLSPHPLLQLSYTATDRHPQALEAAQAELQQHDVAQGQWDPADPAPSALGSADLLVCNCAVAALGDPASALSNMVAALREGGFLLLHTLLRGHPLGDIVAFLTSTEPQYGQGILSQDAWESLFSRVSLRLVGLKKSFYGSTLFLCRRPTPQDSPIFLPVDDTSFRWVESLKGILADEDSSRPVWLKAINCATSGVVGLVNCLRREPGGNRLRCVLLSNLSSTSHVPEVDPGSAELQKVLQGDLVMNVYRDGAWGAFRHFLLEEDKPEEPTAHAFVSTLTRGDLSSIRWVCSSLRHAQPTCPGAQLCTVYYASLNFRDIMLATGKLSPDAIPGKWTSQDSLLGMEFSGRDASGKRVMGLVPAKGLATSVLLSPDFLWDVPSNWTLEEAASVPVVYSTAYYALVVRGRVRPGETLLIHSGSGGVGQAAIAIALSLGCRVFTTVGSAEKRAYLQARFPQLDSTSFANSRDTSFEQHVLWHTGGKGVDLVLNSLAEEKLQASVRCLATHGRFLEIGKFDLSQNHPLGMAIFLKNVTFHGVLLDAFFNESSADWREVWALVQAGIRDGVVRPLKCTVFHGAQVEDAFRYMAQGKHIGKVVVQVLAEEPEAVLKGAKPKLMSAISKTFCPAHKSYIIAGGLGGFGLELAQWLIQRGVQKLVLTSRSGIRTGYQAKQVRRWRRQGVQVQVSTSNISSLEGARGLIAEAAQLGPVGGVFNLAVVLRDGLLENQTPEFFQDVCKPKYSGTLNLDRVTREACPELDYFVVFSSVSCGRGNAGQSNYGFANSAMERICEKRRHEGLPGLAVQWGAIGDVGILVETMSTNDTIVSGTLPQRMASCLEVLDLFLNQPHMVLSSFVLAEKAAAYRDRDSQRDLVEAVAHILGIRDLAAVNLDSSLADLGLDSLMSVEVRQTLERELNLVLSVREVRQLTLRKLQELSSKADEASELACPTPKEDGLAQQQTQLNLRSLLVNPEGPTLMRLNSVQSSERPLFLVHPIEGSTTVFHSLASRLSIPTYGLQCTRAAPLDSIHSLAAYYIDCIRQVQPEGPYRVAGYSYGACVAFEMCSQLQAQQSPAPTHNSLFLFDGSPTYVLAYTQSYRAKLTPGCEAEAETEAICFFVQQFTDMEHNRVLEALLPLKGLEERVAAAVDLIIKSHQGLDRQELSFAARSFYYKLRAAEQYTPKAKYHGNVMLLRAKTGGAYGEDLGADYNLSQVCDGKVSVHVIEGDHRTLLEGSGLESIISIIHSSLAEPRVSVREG
# Fatty acid synthase [6] = molecular target: T2, Fatty acid synthase; assay: inhibition of human FAS-TE enzyme activity – biochemical, endpoint fluorescence intensity, uHTS hits, dose response (AID 624327); type: functional;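 further: fluorescence from hydrolysis of an O-methyl fluorescein acyl ester substrate by the enzyme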
# Aminopeptidase N = molecular target: T3, Aminopeptidase N (Plasmodium falciparum FcB1/Columbia, UniProt O96935); assay: malaria alanyl aminopeptidase activity blockers – biochemical, fluorogenic H-Leu-NHMec substrate, 1536-well (AID 1445); set-up: species or system Plasmodium falciparum 3D7, 3D7
# T3 sequence (O96935 whole entry): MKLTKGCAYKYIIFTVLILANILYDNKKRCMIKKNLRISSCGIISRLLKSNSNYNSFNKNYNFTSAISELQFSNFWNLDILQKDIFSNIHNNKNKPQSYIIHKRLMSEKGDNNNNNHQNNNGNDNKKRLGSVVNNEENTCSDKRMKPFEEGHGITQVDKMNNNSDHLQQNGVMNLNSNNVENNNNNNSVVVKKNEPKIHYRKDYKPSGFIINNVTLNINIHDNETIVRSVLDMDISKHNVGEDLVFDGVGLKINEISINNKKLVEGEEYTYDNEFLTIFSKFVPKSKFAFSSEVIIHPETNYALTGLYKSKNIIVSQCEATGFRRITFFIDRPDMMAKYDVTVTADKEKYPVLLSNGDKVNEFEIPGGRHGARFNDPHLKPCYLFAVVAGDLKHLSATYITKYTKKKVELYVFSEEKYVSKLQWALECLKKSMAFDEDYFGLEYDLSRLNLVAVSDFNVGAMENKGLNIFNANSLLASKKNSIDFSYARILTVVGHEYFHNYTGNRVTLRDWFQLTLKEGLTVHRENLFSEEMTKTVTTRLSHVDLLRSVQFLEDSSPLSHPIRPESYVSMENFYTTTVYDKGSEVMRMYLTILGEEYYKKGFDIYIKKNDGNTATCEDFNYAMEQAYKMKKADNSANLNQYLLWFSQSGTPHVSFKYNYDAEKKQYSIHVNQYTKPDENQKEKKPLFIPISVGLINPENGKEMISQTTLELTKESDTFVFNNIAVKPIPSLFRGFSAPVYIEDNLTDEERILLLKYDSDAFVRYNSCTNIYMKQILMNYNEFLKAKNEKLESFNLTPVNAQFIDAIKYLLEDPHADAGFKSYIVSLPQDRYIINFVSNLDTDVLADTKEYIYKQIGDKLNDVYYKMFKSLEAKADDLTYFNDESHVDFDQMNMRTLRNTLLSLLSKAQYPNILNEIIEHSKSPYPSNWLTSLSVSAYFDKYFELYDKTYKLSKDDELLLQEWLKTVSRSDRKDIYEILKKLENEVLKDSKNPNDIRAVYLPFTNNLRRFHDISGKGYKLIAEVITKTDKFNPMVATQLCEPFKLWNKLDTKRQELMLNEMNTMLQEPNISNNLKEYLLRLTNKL
# [7] = molecular target: T4, Heat shock factor protein 1 (Mus musculus, UniProt P38532); assay: decrease of HSF1-responsive luciferase luminescence – cell-based, NIH3T3, dose retest, confirmation (AID 2382); type: functional;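 further: NIH3T3 fibroblasts with HSF1-driven luciferase reporter stressed by proteasome inhibitor MG132; luminescence from HSF1-driven luciferase expression after 8 hours of MG132 stress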
# T4 sequence (P38532 whole entry): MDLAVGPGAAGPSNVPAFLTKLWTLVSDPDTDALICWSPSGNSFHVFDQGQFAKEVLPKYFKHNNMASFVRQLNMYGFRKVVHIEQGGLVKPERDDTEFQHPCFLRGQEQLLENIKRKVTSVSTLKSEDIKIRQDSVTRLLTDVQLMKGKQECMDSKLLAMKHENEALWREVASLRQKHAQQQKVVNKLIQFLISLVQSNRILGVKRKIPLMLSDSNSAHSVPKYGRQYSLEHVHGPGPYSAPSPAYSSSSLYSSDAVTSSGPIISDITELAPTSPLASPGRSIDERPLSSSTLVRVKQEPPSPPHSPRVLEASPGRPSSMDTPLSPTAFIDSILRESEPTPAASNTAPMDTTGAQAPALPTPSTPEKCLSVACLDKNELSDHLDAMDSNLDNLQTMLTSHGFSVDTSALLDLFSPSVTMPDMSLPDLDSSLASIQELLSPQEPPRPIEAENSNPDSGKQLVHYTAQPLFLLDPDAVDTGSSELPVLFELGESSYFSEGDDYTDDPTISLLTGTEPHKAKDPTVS
# Leucine aminopeptidase = molecular target: T5, Leucine aminopeptidase (Plasmodium falciparum 3D7, UniProt Q8IL11); assay: P. falciparum M17LAP inhibitors, primary screen, biochemical, fluorogenic H-Leu-NHMec substrate, 1536-well (AID 1619); type: functional
# T5 sequence (Q8IL11 whole entry): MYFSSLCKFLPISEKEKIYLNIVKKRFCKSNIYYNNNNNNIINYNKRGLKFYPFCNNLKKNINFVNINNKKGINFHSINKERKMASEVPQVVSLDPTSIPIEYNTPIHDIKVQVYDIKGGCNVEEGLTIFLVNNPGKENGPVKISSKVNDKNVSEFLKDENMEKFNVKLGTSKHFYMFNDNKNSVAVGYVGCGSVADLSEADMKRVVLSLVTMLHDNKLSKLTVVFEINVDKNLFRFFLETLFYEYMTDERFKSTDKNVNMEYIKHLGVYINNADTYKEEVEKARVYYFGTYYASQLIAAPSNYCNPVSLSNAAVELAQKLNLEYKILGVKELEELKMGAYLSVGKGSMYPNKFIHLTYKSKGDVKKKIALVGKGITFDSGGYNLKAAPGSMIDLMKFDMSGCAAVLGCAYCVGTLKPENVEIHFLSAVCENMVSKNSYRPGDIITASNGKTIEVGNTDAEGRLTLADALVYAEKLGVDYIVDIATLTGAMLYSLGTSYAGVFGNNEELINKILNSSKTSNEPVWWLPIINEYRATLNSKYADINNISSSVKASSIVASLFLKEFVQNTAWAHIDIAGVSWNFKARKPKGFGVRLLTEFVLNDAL
# [8] = P. falciparum Dd2 growth inhibitors, dose response, SYBR Green, cherry-picked samples (AID 1159567); type: functional, cell-based
# [9] = molecular target: Glyceraldehyde-3-phosphate dehydrogenase (Homo sapiens, UniProt P04406)
# Chain of Glyceraldehyde-3-phosphate dehydrogenase (P04406 whole entry): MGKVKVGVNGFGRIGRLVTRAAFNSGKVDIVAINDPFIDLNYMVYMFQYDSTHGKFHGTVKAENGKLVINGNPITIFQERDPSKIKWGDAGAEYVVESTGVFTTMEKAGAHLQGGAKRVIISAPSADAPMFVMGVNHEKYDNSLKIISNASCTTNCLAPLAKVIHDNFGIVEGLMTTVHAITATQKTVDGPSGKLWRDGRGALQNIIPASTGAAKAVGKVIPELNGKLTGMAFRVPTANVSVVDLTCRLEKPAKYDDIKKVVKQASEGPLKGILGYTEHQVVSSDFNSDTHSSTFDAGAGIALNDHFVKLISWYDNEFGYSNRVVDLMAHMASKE
# [10] = molecular target: T6, Zinc finger protein mex-5 (Caenorhabditis elegans, UniProt Q9XUB2); assay: potency of MEX-5 RNA-binding blockers – biochemical, C. elegans, fluorescence polarization, dose response (AID 1960)
# T6 sequence (Q9XUB2 whole entry): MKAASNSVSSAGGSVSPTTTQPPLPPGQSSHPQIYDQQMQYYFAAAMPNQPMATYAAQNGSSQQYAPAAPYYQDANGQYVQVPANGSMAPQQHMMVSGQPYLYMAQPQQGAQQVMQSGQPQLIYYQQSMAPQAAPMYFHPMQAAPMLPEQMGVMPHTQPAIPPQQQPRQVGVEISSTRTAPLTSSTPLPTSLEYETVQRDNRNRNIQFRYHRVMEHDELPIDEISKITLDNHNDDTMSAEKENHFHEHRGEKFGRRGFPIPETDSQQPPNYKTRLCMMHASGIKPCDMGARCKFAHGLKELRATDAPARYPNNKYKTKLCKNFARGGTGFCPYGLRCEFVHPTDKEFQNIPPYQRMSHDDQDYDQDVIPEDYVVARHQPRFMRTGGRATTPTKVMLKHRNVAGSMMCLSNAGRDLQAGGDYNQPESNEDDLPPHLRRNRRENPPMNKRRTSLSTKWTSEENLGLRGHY
# [11] = molecular target: T7, RNA-binding protein pos-1 (Caenorhabditis elegans, UniProt G5EF15); assay: disruptors of C. elegans POS-1 RNA interaction – biochemical, fluorescence polarization, dose response (AID 1964);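 further: purified POS-1 fused to maltose binding protein made in E. coli; potency of compounds blocking POS-1 binding to fluorescent RNA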
# T7 sequence (G5EF15 whole entry): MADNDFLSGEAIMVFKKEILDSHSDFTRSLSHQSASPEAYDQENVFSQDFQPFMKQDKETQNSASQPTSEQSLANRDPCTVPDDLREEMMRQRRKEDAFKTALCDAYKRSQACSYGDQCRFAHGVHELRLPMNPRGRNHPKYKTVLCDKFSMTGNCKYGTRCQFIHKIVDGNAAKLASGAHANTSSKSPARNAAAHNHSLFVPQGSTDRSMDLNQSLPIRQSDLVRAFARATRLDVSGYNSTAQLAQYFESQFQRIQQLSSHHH
# Nonstructural protein 1 = Nonstructural protein 1 (Influenza A virus, UniProt Q194T2); type: functional, Influenza A virus (A/California/07/2009(H1N1))
# Chain of Nonstructural protein 1 (Q194T2 whole entry): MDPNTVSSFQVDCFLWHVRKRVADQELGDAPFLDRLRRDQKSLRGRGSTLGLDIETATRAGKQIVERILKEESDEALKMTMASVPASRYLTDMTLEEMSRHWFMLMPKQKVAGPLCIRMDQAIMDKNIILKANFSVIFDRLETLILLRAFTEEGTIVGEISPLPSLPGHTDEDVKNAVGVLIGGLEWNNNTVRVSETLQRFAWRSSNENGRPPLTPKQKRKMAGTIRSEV
# [12] = microbe, parasite or virus in culture; type: functional; details: Mycobacterium tuberculosis
# Cytochrome P450 3A4 = Cytochrome P450 3A4 (Homo sapiens, UniProt P08684);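 further: CYP3A4 tested as one member of a cytochrome P450 panel screen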
# Chain of Cytochrome P450 3A4 (P08684 whole entry): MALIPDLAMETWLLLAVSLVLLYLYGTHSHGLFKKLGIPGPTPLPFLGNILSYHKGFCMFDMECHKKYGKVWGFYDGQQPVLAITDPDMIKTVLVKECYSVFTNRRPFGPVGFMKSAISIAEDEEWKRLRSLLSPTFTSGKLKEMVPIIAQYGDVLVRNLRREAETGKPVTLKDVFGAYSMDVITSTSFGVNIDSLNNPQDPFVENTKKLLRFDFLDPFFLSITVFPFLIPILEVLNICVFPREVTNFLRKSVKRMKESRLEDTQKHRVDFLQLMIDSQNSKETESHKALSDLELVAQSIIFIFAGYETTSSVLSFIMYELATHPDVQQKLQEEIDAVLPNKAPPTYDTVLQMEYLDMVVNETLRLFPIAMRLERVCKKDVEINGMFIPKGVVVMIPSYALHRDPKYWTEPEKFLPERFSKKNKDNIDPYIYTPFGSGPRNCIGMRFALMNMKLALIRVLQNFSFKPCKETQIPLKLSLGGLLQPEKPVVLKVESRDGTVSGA
smiles,measurement,setting,value
Cc1cc(C)n(CCOc2ccc(Cl)cc2Cl)n1,CC50,[1],> 50 µM (active)
COc1ccc(-c2ccnc3nc(Sc4ncc(C(F)(F)F)cc4Cl)nn23)cc1,CC50,[1],36.7 µM (active)
CCOc1cc(S(=O)(=O)NCc2ccc(OC)cc2)c(OCC)cc1-n1cnnn1,IC50,Prothrombin,> 50 µM (not active)
CCn1c(/C=C/c2ccc(O)cc2)nc2ccccc2c1=O,IC50,[2],33.7 µM (active)
same,AC50,[3],3.35 µM (active)
same,CC50,[4],100 µM (active)
O=C(CN1CC(c2ccccc2)CC1=O)N/N=C/c1cc(Br)ccc1O (configuration not stated),IC50,Fatty acid synthase [5],4.11 µM (active)
same,IC50,Fatty acid synthase [6],3.61 µM (active)
same,IC50,Aminopeptidase N,11.8 µM (active)
COc1ccc(/C=N/Nc2ccc(C(=O)O)cc2)cc1Br,EC50,[7],< 0.16 µM (active)
same,AC50,[3],0.837 µM (active)
same,IC50,Leucine aminopeptidase,23.4 µM (active)
O=C(N/N=C/c1coc2ccccc2c1=O)c1cccc([N+](=O)[O-])c1,IC50,Leucine aminopeptidase,35.2 µM (active)
COc1ccc2c3c(n(C)c2c1)[C@H](CO)N(C(=O)CC1CC1)CC31CCN(Cc2nccs2)CC1,AC50,[8],3.93 µM (active)
O=C1C(Cl)=C(N2CCN(c3ncccn3)CC2)C(=O)N1c1ccnc(Cl)c1,IC50,[9],> 50 µM (inconclusive)
COc1cc(/C=C/C(=O)O)cc(S(=O)(=O)Nc2ccc3nc(SC)sc3c2)c1OC,IC50,Aminopeptidase N,66.4 µM (active)
Nc1nc(-c2cccnc2)nn1C(=O)c1ccc(F)cc1,IC50,Prothrombin,2.01 µM (active)
Cc1cccn2c(=O)c3cc(S(=O)(=O)c4ccccc4)c(=N)n(Cc4cccnc4)c3nc12,EC50,[10],18.8 µM (inconclusive)
same,CC50,[1],> 50 µM (active)
same,EC50,[11],8.88 µM (inconclusive)
O=C(NCc1ccc2c(c1)OCO2)c1cnc2ccc(S(=O)(=O)N3CCOCC3)cc2c1O,IC50,Prothrombin,0.845 µM (active)
Cc1ccc(C(c2nnnn2Cc2cccs2)N2CCN(Cc3ccc4c(c3)OCO4)CC2)cc1 (configuration not stated),IC50,Nonstructural protein 1,> 100 µM (active)
same,CC50,[12],> 40 µM (active)
O=S(=O)(c1ccc(F)cc1)N1C[C@@H]2N[C@H](C1)[C@H]2c1ccc(-c2ccc(F)cc2)cc1,AC50,[8],2.1 µM (active)
COc1cccc(/C=N/NC(=S)Nc2cccc(C(=O)O)c2)c1,IC50,Leucine aminopeptidase,15.7 µM (active)
COc1ccc(NC(=O)CC2COc3ccccc3O2)c(OC)c1 (configuration not stated),IC50,Leucine aminopeptidase,7.18 µM (active)
Nc1ccccc1C(=O)N=Nc1[nH]c(N)c2ccccc12,IC50,Nonstructural protein 1,20.7 µM (active)
CCCC(=O)n1nc(-c2cccnc2)nc1NCc1ccc(OC)cc1,IC50,Prothrombin,0.0883 µM (active)
Cc1ccc2nc3c(nc2c1C)C(O)=C3O,IC50,Aminopeptidase N,48.5 µM (active)
CSc1nc(N)nc(-c2cccs2)c1C#N,CC50,[1],> 25 µM (active)
same,AC50,Cytochrome P450 3A4,25.1 µM (inconclusive)
CCOC(=O)CCNC(=O)N1CCCC(CNS(=O)(=O)c2cccs2)C1 (configuration not stated),IC50,Prothrombin,> 50 µM (not active)
